Laboratory results as given in patent US20070099259A1, “ELECTROCHEMICAL ASSAY FOR THE IDENTIFICATION OF MICROORGANISMS” (RAPID LABORATORY MICROSYSTEMS INC., priority 2003, published 2007).
Where two headings read alike, the source gives them in different places.

Columns and labels:
[1] = test system: Staphylococcus aureus ATCC 6538P; experiment: Respiration assay (Example 1), electrochemical ferricyanide/DCIP mediator consumption; format: cell-based; conditions: for Slope data: n=2; for slope / normalized slope / relative activity: effector 10 mM; for slope: 5 μM DCIP, 50 mM ferricyanide, 35° C.; for normalized slope: area normalized; for relative activity: buffer set as 100%
Procedure: (§1) The ferricyanide solution is added so that the final ferricyanide concentrations is 50 mM.
(§2) The bacterial suspensions were adjusted to a MacFarland Standard of 5.0 (5.0×10sup.8 cfu/mL) or an optical density of 1.2 measured at 625 nm and cell growth was stopped by cooling the bacterial suspension for a minimum of 15 min in an ice-bath.

E. faecalis [2] = experiment: as above; format: cell-based, Enterococcus faecalis; conditions: n=2
Procedure: as §1, §2

P. vulgaris ATCC6380 = experiment: Relative respiratory activity with 22 effectors (Example 3); format: cell-based, Proteus vulgaris
Text: (§3) In this example, each microorganism is subjected to 22 different effector compounds in addition to control measurements. […] For each microorganism, duplicate measurements were made of 22 different effector compounds. In addition, duplicate measurements were made a control test containing no effector compound. One additional measurement was made of a control solution containing the microorganism with ferricyanide but without effector or DCIP.
(§4) In this example, each normalized data set containing duplicate measurements for each of 22 effector compounds is referenced to the duplicate internal controls to allow batch-to-batch comparison. The obtained signals of charge per unit electrode area for the duplicate control measurements are averaged and set at 100% respiratory cycle activity. […] The data set used to generate pattern recognition plots consists of 5 replicate batches (each batch containing duplicate measurements for each of 22 effector compounds) for each cell culture (10 strains). This is used to generate a 50 (columns)×22 (rows) matrix. The matrix is imported into MATLAB (Version 6.0). Factor analysis is performed using the MATLAB Chemometric Toolbox (Version 2.3) and involves the generation of reduced eigenvectors to determine the optimal number of factors, examination of the resulting residuals plots for randomness, and the generation of scores for the first four principle components.

E. faecalis [3] = experiment: as above; format: cell-based, Enterococcus faecalis; conditions: for activity at 10000 µM: read-out: relative %-respiratory activity
Text: as §3, §4

E. aerogenes ATCC13048e = experiment: as above; format: cell-based, Enterobacter aerogenes; conditions: for activity at 10000 µM: read-out: relative %-respiratory activity
Text: as §3, §4

E. coli B = experiment: as above; format: cell-based; conditions: for activity at 10000 µM: effector 10 mM, read-out: relative %-respiratory activity
Text: as §3, §4

E. coli HB101 = experiment: as above; format: cell-based
Text: as §3, §4

E. coli JM105 = experiment: as above; format: cell-based
Text: as §3, §4

E. coli Neotype = experiment: as above; format: cell-based; conditions: 5 μM DCIP, no effector = 100%, n = 26; for activity at 10000 µM: effector 10 mM, read-out: relative %-respiratory activity
Text: as §3, §4

P. aeruginosa = experiment: as above; format: cell-based, Pseudomonas aeruginosa; conditions: for activity at 10000 µM: read-out: relative %-respiratory activity
Text: as §3, §4

S. aureus ATCC6538P = experiment: as above; format: cell-based, Staphylococcus aureus; conditions: for activity at 10000 µM: read-out: relative %-respiratory activity
Text: as §3, §4

S. cerevisiae = experiment: as above; format: cell-based, Saccharomyces cerevisiae; conditions: for activity at 10000 µM: read-out: relative %-respiratory activity
Text: as §3, §4

Gram-positive bacteria = conditions: effector 1 mM instead of 1 mM glucose, relative to + DCIP
Procedure: The following steps are used for each test: (1) preheating for a fixed time (4 min) and a fixed temperature (35° C.) a 150 μL aliquot of buffer containing 1 mM glucose (glc) with or without 5 μM DCIP; (2) this is followed by the addition of 50 μL of the bacterial suspension to the sample for a fixed time (10 min) and at a fixed temperature (35° C.); (3) this is followed by the addition of the mediator (50 μL of 0.4 M potassium ferricyanide) for a fixed time (10 min) and at a fixed temperature (35° C.); and (4) measurement of current at a fixed voltage difference (100 mV) between two platinum electrodes for a fixed time (120 sec) at a fixed temperature (35° C.). The final ferricyanide concentration in the sample prior to reaction with the microorganism is 40 mM.
In this configuration the assay uses two platinum electrodes each having a surface area of approximately 0.03 cm^2. The measured current depends on the concentration of the least-concentrated species of the redox-couple in solution. […] The magnitude of the measured current indicates the quantity of the reduced mediator present in the assay solution. The measured current is integrated over time to produce a plot of total charge against time. The change in total charge is measured between 30 and 120 seconds after the potential is applied. […]

[4] = test system: Enterobacter aerogenes ATCC 13048e; experiment: Respiration assay (Example 1), electrochemical ferricyanide/DCIP mediator consumption; format: cell-based; conditions: effector 10 mM; for slope: 5 μM DCIP, 50 mM ferricyanide, 35° C.; for normalized slope: area normalized; for relative activity: buffer set as 100%
Procedure: as §1, §2

[5] = Proteus vulgaris, ATCC6380, effector 10 mM, 5 μM DCIP, no effector = 100%, n = 20, read-out: relative %-respiratory activity
[6] = Enterococcus faecalis, effector 10 mM, 5 μM DCIP, no effector = 100%, n = 20
[7] = Klebsiella aerogenes, ATCC13048E, effector 10 mM, 5 μM DCIP, no effector = 100%, n = 26
[8] = Escherichia coli, 5 μM DCIP, no effector = 100%, n = 10
[9] = Escherichia coli, HB101, effector 10 mM, 5 μM DCIP, no effector = 100%, n = 18, read-out: relative %-respiratory activity
[10] = Escherichia coli, JM105, effector 10 mM, 5 μM DCIP, no effector = 100%, n = 10, read-out: relative %-respiratory activity
[11] = Pseudomonas aeruginosa, effector 10 mM, 5 μM DCIP, no effector = 100%, n = 18
[12] = Staphylococcus aureus, ATCC6538P, effector 10 mM, 5 μM DCIP, no effector = 100%, n = 20
[13] = Saccharomyces cerevisiae, effector 10 mM, 5 μM DCIP, no effector = 100%, n = 10
[14] = effector 3 mM, 5 μM DCIP, no effector = 100%, n = 20
[15] = effector 3 mM, 5 μM DCIP, no effector = 100%, n = 18
[16] = effector 3 mM, 5 μM DCIP, no effector = 100%, n = 10

Compound	respiratory signals in the absence of 5 μM DCIP (Gram-positive bacteria)	slope [4] [μC/min]	normalized slope [4] [μC/min*mm^2]	relative activity [4] [%]	slope [1] [μC/min]	normalized slope [1] [μC/min*mm^2]	relative activity [1] [%]	activity at 10000 µM (P. vulgaris ATCC6380; [5]) [%]	activity at 10000 µM (E. faecalis [3]; [6]) [%]	activity at 10000 µM (E. aerogenes ATCC13048e; [7]) [%]	activity at 10000 µM (E. coli B; [8]) [%]	activity at 10000 µM (E. coli HB101; [9]) [%]	activity at 10000 µM (E. coli JM105; [10]) [%]	activity at 10000 µM (E. coli Neotype; Escherichia coli) [%]	activity at 10000 µM (P. aeruginosa; [11]) [%]	activity at 10000 µM (S. aureus ATCC6538P; [12]) [%]	activity at 10000 µM (S. cerevisiae; [13]) [%]	other results
O=C[C@@H](O)[C@@H](O)[C@H](O)[C@H](O)CO [D-mannose]	below 60%																	Slope data ([1]; substrate 1 mM): 16.6 μC/min; Slope data ([1]; substrate 10 mM): 14.0 μC/min; Slope data ([1]; substrate 50 mM): 15.1 μC/min; Slope data (E. faecalis [2]; substrate 1 mM): 17.8 μC/min; Slope data (E. faecalis [2]; substrate 10 mM): 19.6 μC/min; Slope data (E. faecalis [2]; substrate 50 mM): 14.5 μC/min; activity at 20000 µM (P. vulgaris ATCC6380; Proteus vulgaris, ATCC6380, effector 20 mM, 5 μM DCIP, no effector = 100%, n = 20): 250%; activity at 20000 µM (E. faecalis [3]; Enterococcus faecalis, effector 20 mM, 5 μM DCIP, no effector = 100%, n = 20): 654%; activity at 20000 µM (E. aerogenes ATCC13048e; Klebsiella aerogenes, ATCC13048E, effector 20 mM, 5 μM DCIP, no effector = 100%, n = 26): 296%; activity at 20000 µM (E. coli B; Escherichia coli, effector 20 mM, 5 μM DCIP, no effector = 100%, n = 10): 152%; activity at 20000 µM (E. coli HB101; Escherichia coli, HB101, effector 20 mM, 5 μM DCIP, no effector = 100%, n = 18): 222%; activity at 20000 µM (E. coli JM105; Escherichia coli, JM105, effector 20 mM, 5 μM DCIP, no effector = 100%, n = 10): 212%; activity at 20000 µM (E. coli Neotype; Escherichia coli, effector 20 mM): 139%; activity at 20000 µM (P. aeruginosa; Pseudomonas aeruginosa, effector 20 mM, 5 μM DCIP, no effector = 100%, n = 18): 108%; activity at 20000 µM (S. aureus ATCC6538P; Staphylococcus aureus, ATCC6538P, effector 20 mM, 5 μM DCIP, no effector = 100%, n = 20): 262%; activity at 20000 µM (S. cerevisiae; Saccharomyces cerevisiae, effector 20 mM, 5 μM DCIP, no effector = 100%, n = 10): 125%
CC(O)C(=O)O (stereo not shown) [Lactic acid, lactic acid]		27.7	16.3	169	24.8	14.6	275	457	118	182	192	171	303	126	122	622	123	
O=C(O)CCC(=O)O [Succinate]	< 80%																	relative %-respiratory activity (P. vulgaris ATCC6380; [14]): 520%; relative %-respiratory activity (E. faecalis [3]; [14]): 87%; relative %-respiratory activity (E. aerogenes ATCC13048e; effector 3 mM, 5 μM DCIP, no effector = 100%, n = 26): 187%; relative %-respiratory activity (E. coli B): 134%; relative %-respiratory activity (E. coli HB101; [15]): 172%; relative %-respiratory activity (E. coli JM105; [16]): 287%; relative %-respiratory activity (E. coli Neotype; effector 3 mM): 127%; relative %-respiratory activity (P. aeruginosa; [15]): 102%; relative %-respiratory activity (S. aureus ATCC6538P; [14]): 167%; relative %-respiratory activity (S. cerevisiae; [16]): 108%
CC(=O)C(=O)O [Pyruvic acid]		23.4	13.7	143	14.8	8.7	164	344	136	209	120	169	249	126	125	313	109	
N=C(N)NCCC[C@H](N)C(=O)O [L-arginine]					9.1	5.3	100				137			114				activity at 10000 µM (P. vulgaris ATCC6380; Proteus vulgaris, ATCC6380, read-out: relative %-respiratory activity): 149%; activity at 10000 µM (E. faecalis [3]; Enterococcus faecalis): 130%; activity at 10000 µM (E. aerogenes ATCC13048e; Klebsiella aerogenes, ATCC13048E): 129%; activity at 10000 µM (E. coli HB101; Escherichia coli, HB101, read-out: relative %-respiratory activity): 114%; activity at 10000 µM (E. coli JM105; Escherichia coli, JM105, read-out: relative %-respiratory activity): 163%; activity at 10000 µM (P. aeruginosa; Pseudomonas aeruginosa): 155%; activity at 10000 µM (S. aureus ATCC6538P; Staphylococcus aureus, ATCC6538P): 132%; activity at 10000 µM (S. cerevisiae; Saccharomyces cerevisiae): 139%
